Assay in all cases: DTP human tumour cell line panel, 48 h
Experiment [1] deals with HT-29.
The test system of experiment [2] is SK-OV-3.
In experiment [3] the test system is K562.
Experiment [4] relates to IGROV-1.
The subject of experiment [5] is TK-10.
The subject of experiment [6] is A549.
In experiment [7] the test system is SK-MEL-5.
In experiment [8] the test system is NCI-H23.
Experiment [9] concerns SW-620.
Experiment [10] has as its system ACHN.
Experiment [11] relates to SK-MEL-28.
Experiment [12] deals with OVCAR-8.
In experiment [13] the test system is UACC-62.
For experiment [14], the system named is T47D.
For experiment [15], the system named is HCT-116.
The subject of experiment [16] is Malme-3M.
The test system of experiment [17] is HOP-62.
Experiment [18] has as its system RPMI-8226.
Experiment [19] relates to LOX IMVI.
Experiment [20] deals with HOP-92.

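A five-concentration, 48-hour dose response in 96-well plates underlies each endpoint, interpolated linearly between surrounding concentrations. GI50 = concentration required for 50% inhibition of growth.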 The source made the active and inactive calls. Cut-off read from the data, not from the text of the source: active = GI50 up to about 1.1 µM and inactive = higher.

Turning to `O/N=N/c1ccc([SH2]c2ccc3ccccc3c2)cn1`, the GI50 in experiment [1] was 34 µM (inactive); in experiment [2], 43.9 µM (inactive); in experiment [3], 16.8 µM (inactive); in experiment [4] it was 32.7 µM (inactive); in experiment [5], 28.6 µM (inactive); in [6], 33 µM (inactive). Further, the GI50 in experiment [7] is 16.3 µM (inactive); in experiment [8] it was 12.2 µM (inactive); in experiment [9], 28.3 µM (inactive); in experiment [10], 18.6 µM (inactive); in experiment [11], 32.7 µM (inactive); in experiment [12], 19.1 µM (inactive). Besides, the GI50 in experiment [13] was 27.6 µM (inactive); in experiment [14], 20.6 µM (inactive); in experiment [15], 15 µM (inactive); in experiment [16], 0.955 µM (active); in [17], 15.1 µM (inactive).
Regarding `CN(C)/N=N/c1nc2c(c(=O)n(C)c(=O)n2C)n1CC(O)CO` (stereo unspecified), the GI50 in [1], in experiment [2], in experiment [3], in [4], in experiment [5] and in [6] was > 100 µM (inactive) throughout. Moreover, the GI50 in experiment [7], in experiment [8], in [9], in experiment [10], in experiment [11] and in experiment [18] was > 100 µM (inactive) in each case. The GI50 in experiment [12] was > 100 µM (inactive); in experiment [13], > 100 µM (inactive); in experiment [14] it was 38.7 µM (inactive); in experiment [15], > 100 µM (inactive); in experiment [16] it was > 100 µM (inactive); in experiment [17], > 100 µM (inactive).
On to `COc1ccc(OC)c2c1ccc1c(C)c3ccccc3c(C)c12`, for which the GI50 in experiment [1] is 95.1 µM (inactive); in [3] it was 51.8 µM (inactive); in [4], > 100 µM (inactive); in [5] it was > 100 µM (inactive); in experiment [8], 89.5 µM (inactive); in experiment [19], 60.1 µM (inactive). Also, the GI50 in [10], in experiment [11], in experiment [18], in experiment [12], in experiment [13] and in experiment [14] was > 100 µM (inactive) each time. Further, the GI50 in [15] is 67.9 µM (inactive); in experiment [16] it was > 100 µM (inactive); in [17] it was 86.5 µM (inactive).
As for `C=CCC1(OCc2ccccc2)C(=O)C(=O)OC1C1COC(C)(C)O1` (stereo unspecified), the GI50 in [1], in experiment [2], in experiment [3], in experiment [5], in experiment [6] and in [7] was > 100 µM (inactive) throughout. For the same molecule, the GI50 in experiment [8], in experiment [19], in experiment [9], in experiment [10], in [11] and in [18] was > 100 µM (inactive) in each case. The GI50 in [12], in [13], in experiment [14], in experiment [15], in experiment [16] and in experiment [17] was > 100 µM (inactive) each time.
`CN(C)c1ccc(C(C#N)NNC(=O)Cc2ccccc2)cc1` (stereo unspecified): the GI50 in experiment [1], in experiment [2], in experiment [3], in experiment [4], in [5] and in [6] was > 100 µM (inactive) in each case. In addition, the GI50 in experiment [7], in experiment [8], in [19], in experiment [9], in [10] and in experiment [11] was > 100 µM (inactive) each time. For the same molecule, the GI50 in experiment [18], in [12], in experiment [13], in experiment [15], in experiment [20] and in experiment [16] was > 100 µM (inactive) in each case. In addition, the GI50 in [17] was > 100 µM (inactive).
For `COC(=O)C1=CC(=O)C(C(=O)Nc2ccc(OC)cc2)C(c2ccccc2)O1` (stereo unspecified), the GI50 in experiment [1] was > 66.5 µM (inactive); in [2], 28.8 µM (inactive); in experiment [3] it was > 67.6 µM (inactive); in [4], 20.5 µM (inactive); in [5] it was 31.6 µM (inactive); in experiment [6], 28.1 µM (inactive). Also, the GI50 in experiment [7] is 25.7 µM (inactive); in [8], 21.4 µM (inactive); in experiment [19] it was 45.1 µM (inactive); in experiment [9], 40.5 µM (inactive); in [10], 41 µM (inactive); in [11], 37.8 µM (inactive). Besides, the GI50 in experiment [18] is 54.5 µM (inactive); in experiment [12], 34.6 µM (inactive); in [13], 32.2 µM (inactive); in experiment [15], 28.6 µM (inactive); in experiment [20], 24 µM (inactive); in experiment [16] it was > 53 µM (inactive). The GI50 in experiment [17] is 24 µM (inactive).
As to `CC(C)(C)C1CCC2c3c([nH]c4ncccc34)C3C(=O)N(c4ccccc4)C(=O)C3C2C1` (stereo unspecified), the GI50 in [1], in experiment [2], in experiment [3], in experiment [4], in experiment [5] and in experiment [6] was > 100 µM (inactive) throughout. The GI50 in experiment [7], in experiment [8], in [19], in experiment [9], in experiment [10] and in [11] was > 100 µM (inactive) throughout. For the same molecule, the GI50 was > 100 µM (inactive) in [18]; 99.3 µM (inactive) in experiment [12]; > 100 µM (inactive) in experiment [13]; > 100 µM (inactive) in [15]; > 100 µM (inactive) in experiment [20]; > 100 µM (inactive) in [16]. The GI50 in experiment [17] was > 100 µM (inactive).
For the molecule `COC(=O)c1cc(-c2ccc(OC)c(OC)c2)oc1-c1ccc(OC)c(OC)c1`, the GI50 is 35.8 µM (inactive) in experiment [1]; 38.9 µM (inactive) in experiment [2]; 80.9 µM (inactive) in experiment [3]; 45.5 µM (inactive) in experiment [4]; 53.8 µM (inactive) in experiment [5]; 44 µM (inactive) in [6]. In addition, the GI50 in experiment [7] is > 10 µM (inactive); in [8], 26.6 µM (inactive); in [19], 28.1 µM (inactive); in [9], 45.3 µM (inactive); in experiment [10], 35.2 µM (inactive); in [11] it was 57.9 µM (inactive). Also, the GI50 in [18] is 33.3 µM (inactive); in experiment [12] it was 44.6 µM (inactive); in [13], 70.1 µM (inactive); in experiment [15], 32.4 µM (inactive); in experiment [20] it was 13.4 µM (inactive); in experiment [16], 43.7 µM (inactive). In addition, in experiment [17], the GI50 is 35.7 µM (inactive).
Regarding `CCCCCCCCCCCCCC/C(C(=O)OC)=C(/O)C(=O)OCC`, the GI50 in [1] is 36.4 µM (inactive); in [2], 35.3 µM (inactive); in experiment [3] it was 27 µM (inactive); in experiment [4], 30 µM (inactive); in experiment [5], 47.3 µM (inactive); in experiment [6], 26.4 µM (inactive). Moreover, the GI50 in experiment [7] was > 100 µM (inactive); in experiment [8], > 100 µM (inactive); in experiment [19] it was 17.8 µM (inactive); in experiment [9], > 100 µM (inactive); in experiment [10] it was 28.9 µM (inactive); in experiment [11] it was 24 µM (inactive). For the same molecule, the GI50 in [18] is > 100 µM (inactive); in experiment [12], 44.8 µM (inactive); in experiment [13], 16.9 µM (inactive); in experiment [15], 47.6 µM (inactive); in experiment [20] it was 25.5 µM (inactive); in [16], > 100 µM (inactive). In [17], the GI50 is 61.2 µM (inactive).
On to `N#CC(c1ccccc1)(c1ccccc1)[C@@H](c1ccccc1)[C@H](Cc1ccccc1)NS(=O)(=O)c1ccccc1`, for which the GI50 in [1], in [2], in experiment [3], in experiment [4], in [5] and in experiment [6] was > 100 µM (inactive) in each case. For the same molecule, the GI50 is 96.2 µM (inactive) in experiment [7]; > 100 µM (inactive) in [8]; > 100 µM (inactive) in experiment [19]; > 100 µM (inactive) in experiment [9]; > 100 µM (inactive) in experiment [10]; > 100 µM (inactive) in experiment [11]. Moreover, the GI50 in experiment [18] was 10.3 µM (inactive); in experiment [12], > 100 µM (inactive); in [13] it was > 100 µM (inactive); in experiment [14] it was > 100 µM (inactive); in experiment [15], > 100 µM (inactive); in [16], > 100 µM (inactive). The GI50 in [17] was > 100 µM (inactive).
As to `O=c1c(Br)cc2nc3ccccc3sc-2c1Br`, the GI50 in [1] was > 100 µM (inactive); in experiment [2], > 100 µM (inactive); in [3], 18.7 µM (inactive); in experiment [4], > 100 µM (inactive); in experiment [5] it was > 100 µM (inactive); in experiment [6] it was > 94.8 µM (inactive). Further, the GI50 in experiment [7] is 29.5 µM (inactive); in [8], 29.9 µM (inactive); in experiment [19] it was 61.7 µM (inactive); in experiment [9], 68.1 µM (inactive); in experiment [10], > 100 µM (inactive); in experiment [11] it was > 100 µM (inactive). For the same molecule, the GI50 in [18] is 18.5 µM (inactive); in experiment [12], 19.5 µM (inactive); in experiment [13], 25 µM (inactive); in experiment [15], > 100 µM (inactive); in experiment [20], 50 µM (inactive); in experiment [16], > 100 µM (inactive). The GI50 in experiment [17] is > 100 µM (inactive).

The values are drawn from ChEMBL document CHEMBL1201862, “PubChem BioAssay data set” (2004).
